Our source for the Ki values is BindingDB's records for doi:10.1210/edrv-16-4-427 (University of Pennsylvania, 1995).

The target of test [1] is Somatostatin receptor type 3 (Homo sapiens, UniProt P32745).
Test [2] concerns the target Somatostatin receptor type 2 (Homo sapiens, UniProt P30874).
The target of test [3] is Somatostatin receptor type 4 (Homo sapiens, UniProt P31391).

pKi: −log10 of the molar value. Peptide text beside a SMILES is read from it.

Chain of Somatostatin receptor type 3 (P32745 whole entry): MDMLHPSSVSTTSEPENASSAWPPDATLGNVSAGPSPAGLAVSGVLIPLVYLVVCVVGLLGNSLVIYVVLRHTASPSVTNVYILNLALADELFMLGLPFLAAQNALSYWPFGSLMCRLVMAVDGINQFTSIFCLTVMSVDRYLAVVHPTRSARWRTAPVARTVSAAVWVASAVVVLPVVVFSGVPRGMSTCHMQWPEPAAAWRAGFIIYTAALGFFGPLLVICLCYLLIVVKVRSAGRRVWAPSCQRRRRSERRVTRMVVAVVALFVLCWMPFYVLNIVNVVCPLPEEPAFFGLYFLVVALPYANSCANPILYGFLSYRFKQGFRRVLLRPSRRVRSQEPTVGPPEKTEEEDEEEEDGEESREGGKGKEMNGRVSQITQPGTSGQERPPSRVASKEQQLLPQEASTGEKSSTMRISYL
Chain of Somatostatin receptor type 2 (P30874 whole entry): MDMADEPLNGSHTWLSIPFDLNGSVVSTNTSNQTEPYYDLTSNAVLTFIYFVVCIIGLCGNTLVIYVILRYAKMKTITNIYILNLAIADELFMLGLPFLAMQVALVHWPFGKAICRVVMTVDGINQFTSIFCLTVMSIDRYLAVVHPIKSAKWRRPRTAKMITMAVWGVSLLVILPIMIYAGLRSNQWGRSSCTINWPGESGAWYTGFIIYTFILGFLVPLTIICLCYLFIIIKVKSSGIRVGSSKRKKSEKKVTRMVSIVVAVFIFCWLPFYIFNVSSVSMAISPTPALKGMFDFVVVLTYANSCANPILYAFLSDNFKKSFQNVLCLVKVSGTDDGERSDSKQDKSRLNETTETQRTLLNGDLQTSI
Chain of Somatostatin receptor type 4 (P31391 whole entry): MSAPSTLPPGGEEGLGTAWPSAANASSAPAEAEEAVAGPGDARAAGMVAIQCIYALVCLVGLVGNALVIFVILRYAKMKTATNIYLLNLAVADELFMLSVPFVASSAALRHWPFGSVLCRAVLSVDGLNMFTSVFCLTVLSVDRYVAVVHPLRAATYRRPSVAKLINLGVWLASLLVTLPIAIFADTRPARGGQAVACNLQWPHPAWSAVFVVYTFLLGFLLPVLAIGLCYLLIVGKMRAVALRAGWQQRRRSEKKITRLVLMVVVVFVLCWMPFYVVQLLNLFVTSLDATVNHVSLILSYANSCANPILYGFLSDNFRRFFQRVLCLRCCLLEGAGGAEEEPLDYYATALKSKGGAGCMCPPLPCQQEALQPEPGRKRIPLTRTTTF

For the compound `CC(C)[C@@H]1NC(=O)[C@H](CCCCN)NC(=O)[C@@H](Cc2c[nH]c3ccccc23)NC(=O)[C@H](Cc2ccc(O)cc2)NC(=O)[C@H](C)N(C)C(=O)[C@H](Cc2ccccc2)NC1=O` [CAS_3086456], the pKi in test [1] was 6.57.
Regarding `C[C@@H](O)[C@@H]1NC(=O)[C@H](Cc2ccc(O)cc2)NC(=O)[C@H]([C@@H](C)O)NC(=O)[C@H](CCCCN)NC(=O)[C@H](Cc2c[nH]c3ccccc23)NC(=O)[C@H](Cc2ccccc2)NC(=O)[C@H](Cc2ccccc2)NC(=O)[C@H](CC(N)=O)NC(=O)[C@H](CCCCN)NC(=O)CCCCC[C@@H](C(=O)O)NC(=O)[C@H](CO)NC1=O` [CGP-23996] (HELM PEPTIDE1{K.N.F.F.W.K.T.Y.T.S.[O=C(O)[C@H](CCCCCC(=O)[*:3])N[*:1]]}$PEPTIDE1,PEPTIDE1,1:R1-11:R3$$$V2.0), the pKi in test [1] is 9.22; in test [2], 9.00; in test [3] it was 8.33.

The term pKi denotes −log10 of the Ki, conventionally taken in molar units. High values mean a low Ki, low ones a high Ki.
